According to PubChem BioAssay (NCI):
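Five concentrations, 48 hours, 96-well plates. GI50 = concentration required for 50% inhibition of growth. TGI denotes the concentration required for complete inhibition of growth.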

How the values were obtained:
Assay in all cases: NCI anticancer screen, dose series, 48 h
MCF7 breast = test system: MCF7 breast
IGROV1 ovarian = test system: IGROV1 ovarian
M14 melanoma = test system: M14 melanoma
A549 NSCLC = test system: A549 NSCLC
UACC-62 melanoma = test system: UACC-62 melanoma
COLO 205 colon = test system: COLO 205 colon
HCT-116 colon = test system: HCT-116 colon
SNB-19 CNS = test system: SNB-19 CNS
OVCAR-5 ovarian = test system: OVCAR-5 ovarian
SW-620 colon = test system: SW-620 colon
RXF 393 renal = test system: RXF 393 renal
SK-OV-3 ovarian = test system: SK-OV-3 ovarian
OVCAR-3 ovarian = test system: OVCAR-3 ovarian
U251 CNS = test system: U251 CNS
NCI/ADR-RES ovarian = test system: NCI/ADR-RES ovarian
HCC-2998 colon = test system: HCC-2998 colon
CAKI-1 renal = test system: CAKI-1 renal
SK-MEL-28 melanoma = test system: SK-MEL-28 melanoma
NCI-H460 lung = test system: NCI-H460 lung
HOP-62 NSCLC = test system: HOP-62 NSCLC
T-47D breast = test system: T-47D breast
NCI-H23 lung = test system: NCI-H23 lung
DU-145 prostate = test system: DU-145 prostate
EKVX NSCLC = test system: EKVX NSCLC
BT-549 breast = test system: BT-549 breast
786-0 renal = test system: 786-0 renal
SK-MEL-2 melanoma = test system: SK-MEL-2 melanoma
UO-31 renal = test system: UO-31 renal
ACHN renal = test system: ACHN renal
K-562 leukemia = test system: K-562 leukemia
RPMI-8226 leukemia = test system: RPMI-8226 leukemia
MDA-MB-231 breast = test system: MDA-MB-231 breast
SN12C renal = test system: SN12C renal
LOX IMVI melanoma = test system: LOX IMVI melanoma
HCT-15 colon = test system: HCT-15 colon
SNB-75 CNS = test system: SNB-75 CNS
NCI-H226 lung = test system: NCI-H226 lung
KM12 colon = test system: KM12 colon
UACC-257 melanoma = test system: UACC-257 melanoma
SF-268 CNS = test system: SF-268 CNS
MALME-3M melanoma = test system: MALME-3M melanoma
TK-10 renal = test system: TK-10 renal
HS 578T breast = test system: HS 578T breast
PC-3 prostate = test system: PC-3 prostate
A498 renal = test system: A498 renal
OVCAR-8 ovarian = test system: OVCAR-8 ovarian
NCI-H522 lung = test system: NCI-H522 lung
HOP-92 NSCLC = test system: HOP-92 NSCLC
HT29 colon = test system: HT29 colon
SK-MEL-5 melanoma = test system: SK-MEL-5 melanoma
SF-539 CNS = test system: SF-539 CNS
MOLT-4 leukemia = test system: MOLT-4 leukemia
OVCAR-4 ovarian = test system: OVCAR-4 ovarian
SF-295 CNS = test system: SF-295 CNS
MDA-MB-435 = test system: MDA-MB-435

CCOC(=O)c1c2c(c(O)c3ccccc3c(O)n(Cc3ccc(OC)cc3)c1C)C(=O)C=CC2=O
GI50 (MCF7 breast): > 100 µM
TGI (MCF7 breast): > 100 µM
GI50 (IGROV1 ovarian): > 100 µM
TGI (IGROV1 ovarian): > 100 µM
GI50 (M14 melanoma): > 100 µM
TGI (M14 melanoma): > 100 µM
GI50 (A549 NSCLC): > 100 µM
TGI (A549 NSCLC): > 100 µM
GI50 (UACC-62 melanoma): > 100 µM
TGI (UACC-62 melanoma): > 100 µM
GI50 (COLO 205 colon): > 100 µM
TGI (COLO 205 colon): > 100 µM
GI50 (HCT-116 colon): > 100 µM
TGI (HCT-116 colon): > 100 µM
GI50 (SNB-19 CNS): > 100 µM
TGI (SNB-19 CNS): > 100 µM
GI50 (OVCAR-5 ovarian): > 100 µM
TGI (OVCAR-5 ovarian): > 100 µM
GI50 (SW-620 colon): > 100 µM
TGI (SW-620 colon): > 100 µM
GI50 (RXF 393 renal): > 100 µM
TGI (RXF 393 renal): > 100 µM
GI50 (SK-OV-3 ovarian): > 100 µM
TGI (SK-OV-3 ovarian): > 100 µM
GI50 (OVCAR-3 ovarian): 68.9 µM
TGI (OVCAR-3 ovarian): > 100 µM
GI50 (U251 CNS): > 100 µM
TGI (U251 CNS): > 100 µM
GI50 (NCI/ADR-RES ovarian): > 100 µM
TGI (NCI/ADR-RES ovarian): > 100 µM
GI50 (HCC-2998 colon): > 100 µM
TGI (HCC-2998 colon): > 100 µM
GI50 (CAKI-1 renal): > 100 µM
TGI (CAKI-1 renal): > 100 µM
GI50 (SK-MEL-28 melanoma): > 100 µM
TGI (SK-MEL-28 melanoma): > 100 µM
GI50 (NCI-H460 lung): > 100 µM
TGI (NCI-H460 lung): > 100 µM
GI50 (HOP-62 NSCLC): > 100 µM
TGI (HOP-62 NSCLC): > 100 µM
GI50 (T-47D breast): > 100 µM
TGI (T-47D breast): > 100 µM
GI50 (NCI-H23 lung): > 100 µM
TGI (NCI-H23 lung): > 100 µM
GI50 (DU-145 prostate): > 100 µM
TGI (DU-145 prostate): > 100 µM
GI50 (EKVX NSCLC): > 100 µM
TGI (EKVX NSCLC): > 100 µM
GI50 (BT-549 breast): > 100 µM
TGI (BT-549 breast): > 100 µM
GI50 (786-0 renal): > 100 µM
TGI (786-0 renal): > 100 µM
GI50 (SK-MEL-2 melanoma): > 100 µM
TGI (SK-MEL-2 melanoma): > 100 µM
GI50 (UO-31 renal): > 100 µM
TGI (UO-31 renal): > 100 µM
GI50 (ACHN renal): > 100 µM
TGI (ACHN renal): > 100 µM
GI50 (K-562 leukemia): 76.9 µM
TGI (K-562 leukemia): > 100 µM
GI50 (RPMI-8226 leukemia): > 100 µM
TGI (RPMI-8226 leukemia): > 100 µM
GI50 (MDA-MB-231 breast): > 100 µM
TGI (MDA-MB-231 breast): > 100 µM
GI50 (SN12C renal): > 100 µM
TGI (SN12C renal): > 100 µM
GI50 (LOX IMVI melanoma): > 100 µM
TGI (LOX IMVI melanoma): > 100 µM
GI50 (HCT-15 colon): > 100 µM
TGI (HCT-15 colon): > 100 µM
GI50 (SNB-75 CNS): > 100 µM
TGI (SNB-75 CNS): > 100 µM
GI50 (NCI-H226 lung): 65.3 µM
TGI (NCI-H226 lung): > 100 µM
GI50 (KM12 colon): > 100 µM
TGI (KM12 colon): > 100 µM
GI50 (UACC-257 melanoma): > 100 µM
TGI (UACC-257 melanoma): > 100 µM
GI50 (SF-268 CNS): > 100 µM
TGI (SF-268 CNS): > 100 µM
GI50 (MALME-3M melanoma): > 100 µM
TGI (MALME-3M melanoma): > 100 µM
GI50 (TK-10 renal): > 100 µM
TGI (TK-10 renal): > 100 µM
GI50 (HS 578T breast): > 100 µM
TGI (HS 578T breast): > 100 µM
GI50 (PC-3 prostate): > 100 µM
TGI (PC-3 prostate): > 100 µM
GI50 (A498 renal): > 100 µM
TGI (A498 renal): > 100 µM
GI50 (OVCAR-8 ovarian): > 100 µM
TGI (OVCAR-8 ovarian): > 100 µM
GI50 (NCI-H522 lung): > 100 µM
TGI (NCI-H522 lung): > 100 µM
GI50 (HOP-92 NSCLC): > 100 µM
TGI (HOP-92 NSCLC): > 100 µM
GI50 (HT29 colon): > 100 µM
TGI (HT29 colon): > 100 µM
GI50 (SK-MEL-5 melanoma): > 100 µM
TGI (SK-MEL-5 melanoma): > 100 µM
GI50 (SF-539 CNS): 84.6 µM
TGI (SF-539 CNS): > 100 µM
GI50 (MOLT-4 leukemia): 76 µM
TGI (MOLT-4 leukemia): > 100 µM
GI50 (OVCAR-4 ovarian): > 100 µM
TGI (OVCAR-4 ovarian): > 100 µM
GI50 (SF-295 CNS): > 100 µM
TGI (SF-295 CNS): > 100 µM
GI50 (MDA-MB-435): > 100 µM
TGI (MDA-MB-435): > 100 µM
